For this assay, the system named is V23 1322 Burkholderia cepacia. The assay can be described thus: MIC assay, CAMHB with alginate oligomer, no visible growth. To be noted: Table 5, V23 MDR Burk cep. In kind it is cell-based.

≈ marks a conversion by molar mass, not a printed value. Marks after values point to notes of the source that are not given here.

The MIC is the lowest concentration found to suppress growth. Take `CC1(C)C[C@@H]1C(=O)N/C(=C\CCCCSC[C@H](N)C(=O)O)C(=O)O` [Primaxin, Imipenem/cilastatin]: the MIC is 32 µg/mL (≈ 89.3 µM) (Burkholderia cepacia, OligoCF-5/20 0G); 32 µg/mL (≈ 89.3 µM) (OligoCF-5/20 +2% G); 32 µg/mL (≈ 89.3 µM) (OligoCF-5/20 +6% G); 8^† μg/ml (OligoCF-5/20 +10% G).

For the origin of these results see patent US9801901B2, “Alginate oligomers for use in overcoming multidrug resistance in bacteria” (priority 2009, dated 2017).
